Assay results reported in patent US9096601B2 (CSPC Zhongqi Pharmaceutical Technology (Shijiazhuang) Co., …, priority 2010, dated 2015).
Like-named read-outs stand apart in the source and are kept apart here.

Legend:
[1] = tested on: non-small cell lung carcinoma cell strain HCC827; assay: In-vitro tumor cell proliferation inhibition, MTT; format: cell-based, human
Summary of the method: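 Cells grown in RPMI-1640 with 10% FBS, seeded overnight (HCC827 at 6×10^4 cells/ml), then exposed to graded compound concentrations for 72 h at 37 °C, 5% CO2, with 1% DMSO solvent control. MTT absorbance at 570 nm; inhibition relative to control; triplicate wells, ≥3 repeats.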

[2] = tested on: non-small cell lung carcinoma cell strain H1975 (EGFR L858R/T790M mutation); assay: In-vitro tumor cell proliferation inhibition, MTT; format: cell-based, human
[3] = tested on: non-small cell lung carcinoma cell strain H292 (EGFR WT); assay: In-vitro tumor cell proliferation inhibition, MTT; format: cell-based, human
[4] = tested on: non-small cell lung carcinoma cell strain PC-9 (EGFR delE746-A750 deletion mutation); assay: In-vitro tumor cell proliferation inhibition, MTT; format: cell-based, human; details: 72 hours
EGFR wild type = EGFR wild type (Homo sapiens (Human), UniProt P00533); assay: Kinase inhibitory activity, isotopic labeling (γ-33P-ATP); format: biochemical; details: ATP 10 μM (Km)
Protocol: (§1) The object of this assay was to test the inventive compounds for the kinase inhibitory activity in vitro. In this assay, an isotopic labeling method was used to label the γ phosphate group on ATP. […] Staurosporine was used as a reference molecule (or referred to as a positive control). […] The IC50 value can be obtained by the calculation of the inhibitory rates at a series of different concentrations of the tested compounds.
(§2) To a reaction tube were successively added the buffer solution (8 mM MOPS, pH 7.0, 0.2 mM EDTA, 10 mM MnCl2), the kinase to be tested (5-10 mU) (EGFR/ALK/BTK/c-KIT/c-SRC/MET/PDGFRα/VEGFR2), the substrate for the kinase to be tested (a reference material), 10 mM of the solution of magnesium acetate and γ-^33 P-ATP, and different concentrations of the tested compounds. […] The reaction was terminated with […] of the 3% phosphate buffer solution. 10 μL of the reaction liquid was titrated on the Filtermat A membrane. The membrane was washed with 75 mM of the phosphate solution thrice (5 minutes each time), and then with methanol once, and finally dried. The membrane was subjected to a scintillation counting. The value of the scintillation counting reflected the phosphorylation level of the substrate and therefore could characterize the inhibition of the kinase activity.

EGFR L858R mutant type = EGFR L858R mutant type (Homo sapiens (Human), UniProt P00533, L858R); assay: as above; format: biochemical; details: ATP 200 μM (Km)
Protocol: as §1, §2

[5] = biological target: EGFR L858R/T790M double mutant type (Homo sapiens (Human), UniProt P00533, L858R/T790M); assay: as above; format: biochemical; details: ATP 45 μM (Km)
Protocol: as §1, §2

MET = MET (Homo sapiens (Human), UniProt P08581); assay: as above; format: biochemical; details: compound at 10 μM
Protocol: (§3) The object of this assay was to test the inventive compounds for the kinase inhibitory activity in vitro. In this assay, an isotopic labeling method was used to label the γ phosphate group on ATP. EGFR (including wild type, L858R mutant type and L858R/T790M double mutant type), VEGFR2, ALK, BTK, c-KIT, c-SRC, MET, PDGFRα and FLT3 kinases were tested in vitro for the activity inhibition. Staurosporine was used as a reference molecule (or referred to as a positive control). […] The IC50 value can be obtained by the calculation of the inhibitory rates at a series of different concentrations of the tested compounds.
as §2

c-SRC = c-SRC (Homo sapiens (Human), UniProt P12931); assay: as above; format: biochemical; details: compound at 10 μM
Protocol: as §3, §2

PDGFRα = PDGFRα (Homo sapiens (Human), UniProt P16234); assay: as above; format: biochemical; details: compound at 10 μM
Protocol: as §3, §2

VEGFR2 = VEGFR2 (Homo sapiens (Human), UniProt P35968); assay: as above; format: biochemical
Protocol: as §3, §2

BTK = BTK (Homo sapiens (Human), UniProt Q06187); assay: as above; format: biochemical; details: compound at 10 μM
Protocol: as §3, §2

ALK = ALK (Homo sapiens (Human), UniProt Q9UM73); assay: as above; format: biochemical; details: compound at 10 μM
Protocol: as §3, §2

FLT3 = FLT3 (Homo sapiens (Human), UniProt P36888); assay: as above; format: biochemical; details: compound at 10 μM
Protocol: as §3, §2

c-KIT = c-KIT (Homo sapiens (Human), UniProt P10721); assay: as above; format: biochemical; details: compound at 10 μM
Protocol: as §3, §2

EGFR wild type, sequence (P00533 25-1210): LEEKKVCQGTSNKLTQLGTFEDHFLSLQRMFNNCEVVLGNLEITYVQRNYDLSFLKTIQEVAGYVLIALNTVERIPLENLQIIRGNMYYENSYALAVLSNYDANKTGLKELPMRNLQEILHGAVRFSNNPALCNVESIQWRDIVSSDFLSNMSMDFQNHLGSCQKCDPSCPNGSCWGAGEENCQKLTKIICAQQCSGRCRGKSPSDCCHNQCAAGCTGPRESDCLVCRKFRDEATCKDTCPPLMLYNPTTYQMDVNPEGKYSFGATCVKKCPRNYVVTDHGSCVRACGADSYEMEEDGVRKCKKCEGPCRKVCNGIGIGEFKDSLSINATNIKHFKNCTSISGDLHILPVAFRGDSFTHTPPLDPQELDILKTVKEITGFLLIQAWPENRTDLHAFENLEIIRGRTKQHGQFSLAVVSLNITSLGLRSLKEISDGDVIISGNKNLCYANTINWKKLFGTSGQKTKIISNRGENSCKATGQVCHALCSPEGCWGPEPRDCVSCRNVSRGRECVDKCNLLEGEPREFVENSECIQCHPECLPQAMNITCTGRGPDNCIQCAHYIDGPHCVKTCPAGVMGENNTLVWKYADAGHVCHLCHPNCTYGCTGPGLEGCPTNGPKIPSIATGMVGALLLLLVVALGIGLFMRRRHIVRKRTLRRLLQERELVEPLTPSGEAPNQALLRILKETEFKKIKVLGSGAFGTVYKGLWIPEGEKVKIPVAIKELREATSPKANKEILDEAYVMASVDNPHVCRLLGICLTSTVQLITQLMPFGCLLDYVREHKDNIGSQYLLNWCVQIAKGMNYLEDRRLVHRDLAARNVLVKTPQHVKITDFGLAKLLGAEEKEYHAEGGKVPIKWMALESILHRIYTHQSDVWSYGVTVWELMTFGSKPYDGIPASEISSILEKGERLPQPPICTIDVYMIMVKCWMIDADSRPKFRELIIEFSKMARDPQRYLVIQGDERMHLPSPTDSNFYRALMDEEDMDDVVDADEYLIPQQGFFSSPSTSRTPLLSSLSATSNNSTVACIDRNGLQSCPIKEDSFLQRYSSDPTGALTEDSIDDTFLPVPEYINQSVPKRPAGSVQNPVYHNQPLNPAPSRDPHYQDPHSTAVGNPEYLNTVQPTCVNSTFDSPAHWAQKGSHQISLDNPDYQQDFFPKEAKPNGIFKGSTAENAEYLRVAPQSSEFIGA
MET, sequence (P08581 25-1390): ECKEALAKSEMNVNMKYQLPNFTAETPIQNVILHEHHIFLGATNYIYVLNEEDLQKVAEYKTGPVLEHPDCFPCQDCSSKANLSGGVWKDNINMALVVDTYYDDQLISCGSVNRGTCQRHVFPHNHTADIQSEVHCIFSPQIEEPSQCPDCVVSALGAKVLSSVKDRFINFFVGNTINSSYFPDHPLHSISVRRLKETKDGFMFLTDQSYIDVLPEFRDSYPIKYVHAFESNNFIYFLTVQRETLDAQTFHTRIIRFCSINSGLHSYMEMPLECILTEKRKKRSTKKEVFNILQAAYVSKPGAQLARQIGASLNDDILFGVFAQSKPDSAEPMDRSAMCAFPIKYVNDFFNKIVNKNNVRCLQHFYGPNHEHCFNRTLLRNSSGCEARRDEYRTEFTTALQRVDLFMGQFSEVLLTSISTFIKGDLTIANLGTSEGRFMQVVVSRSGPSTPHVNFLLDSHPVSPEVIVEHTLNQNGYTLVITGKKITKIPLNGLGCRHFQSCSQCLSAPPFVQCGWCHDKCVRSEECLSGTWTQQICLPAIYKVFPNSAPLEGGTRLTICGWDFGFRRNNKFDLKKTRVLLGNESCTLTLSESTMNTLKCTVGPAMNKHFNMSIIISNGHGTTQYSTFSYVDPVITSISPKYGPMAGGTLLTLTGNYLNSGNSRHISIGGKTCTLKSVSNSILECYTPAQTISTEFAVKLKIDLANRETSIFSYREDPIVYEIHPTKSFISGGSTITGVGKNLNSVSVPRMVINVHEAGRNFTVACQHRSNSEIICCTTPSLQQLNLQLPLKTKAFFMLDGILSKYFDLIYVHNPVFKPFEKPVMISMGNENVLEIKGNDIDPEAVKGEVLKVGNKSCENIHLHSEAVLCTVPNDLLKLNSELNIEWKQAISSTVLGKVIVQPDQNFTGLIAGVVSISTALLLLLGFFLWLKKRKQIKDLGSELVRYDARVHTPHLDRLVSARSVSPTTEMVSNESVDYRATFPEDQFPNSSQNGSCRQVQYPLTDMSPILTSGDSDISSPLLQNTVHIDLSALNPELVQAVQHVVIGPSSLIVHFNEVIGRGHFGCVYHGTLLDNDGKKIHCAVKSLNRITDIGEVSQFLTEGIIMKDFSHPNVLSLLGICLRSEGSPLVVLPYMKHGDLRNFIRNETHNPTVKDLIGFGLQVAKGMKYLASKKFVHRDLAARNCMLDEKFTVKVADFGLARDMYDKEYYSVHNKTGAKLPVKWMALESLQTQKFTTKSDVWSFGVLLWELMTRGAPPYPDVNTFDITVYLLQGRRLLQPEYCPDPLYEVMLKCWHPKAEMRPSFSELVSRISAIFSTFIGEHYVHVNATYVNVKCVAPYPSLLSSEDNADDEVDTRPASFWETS
PDGFRα, sequence (P16234 24-1089): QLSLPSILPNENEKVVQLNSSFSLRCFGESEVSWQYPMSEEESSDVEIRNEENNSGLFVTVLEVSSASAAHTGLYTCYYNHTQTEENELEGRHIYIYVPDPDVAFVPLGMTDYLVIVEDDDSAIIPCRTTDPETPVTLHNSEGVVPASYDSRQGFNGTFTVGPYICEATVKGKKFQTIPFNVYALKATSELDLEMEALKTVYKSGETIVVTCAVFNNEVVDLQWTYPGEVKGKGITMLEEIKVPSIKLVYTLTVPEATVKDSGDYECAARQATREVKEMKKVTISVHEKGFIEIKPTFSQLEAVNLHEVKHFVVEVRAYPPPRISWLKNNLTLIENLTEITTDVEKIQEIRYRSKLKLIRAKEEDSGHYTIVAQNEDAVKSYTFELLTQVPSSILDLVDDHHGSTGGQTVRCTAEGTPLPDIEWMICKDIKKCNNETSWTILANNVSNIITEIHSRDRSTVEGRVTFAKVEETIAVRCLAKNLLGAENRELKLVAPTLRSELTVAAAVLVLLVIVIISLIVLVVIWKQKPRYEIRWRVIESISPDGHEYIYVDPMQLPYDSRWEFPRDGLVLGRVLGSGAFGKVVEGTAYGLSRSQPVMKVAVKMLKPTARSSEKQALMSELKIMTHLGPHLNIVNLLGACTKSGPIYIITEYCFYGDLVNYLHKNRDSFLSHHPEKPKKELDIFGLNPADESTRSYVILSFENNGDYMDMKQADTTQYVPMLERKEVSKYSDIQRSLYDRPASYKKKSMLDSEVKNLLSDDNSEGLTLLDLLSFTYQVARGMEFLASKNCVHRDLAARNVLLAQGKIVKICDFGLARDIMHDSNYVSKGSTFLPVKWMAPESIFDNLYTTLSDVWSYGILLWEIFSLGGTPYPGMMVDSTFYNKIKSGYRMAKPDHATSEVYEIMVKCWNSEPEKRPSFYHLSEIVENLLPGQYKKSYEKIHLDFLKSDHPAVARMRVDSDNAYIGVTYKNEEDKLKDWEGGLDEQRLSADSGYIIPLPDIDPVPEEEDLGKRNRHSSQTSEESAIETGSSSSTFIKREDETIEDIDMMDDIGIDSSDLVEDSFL
BTK, sequence (Q06187 whole entry): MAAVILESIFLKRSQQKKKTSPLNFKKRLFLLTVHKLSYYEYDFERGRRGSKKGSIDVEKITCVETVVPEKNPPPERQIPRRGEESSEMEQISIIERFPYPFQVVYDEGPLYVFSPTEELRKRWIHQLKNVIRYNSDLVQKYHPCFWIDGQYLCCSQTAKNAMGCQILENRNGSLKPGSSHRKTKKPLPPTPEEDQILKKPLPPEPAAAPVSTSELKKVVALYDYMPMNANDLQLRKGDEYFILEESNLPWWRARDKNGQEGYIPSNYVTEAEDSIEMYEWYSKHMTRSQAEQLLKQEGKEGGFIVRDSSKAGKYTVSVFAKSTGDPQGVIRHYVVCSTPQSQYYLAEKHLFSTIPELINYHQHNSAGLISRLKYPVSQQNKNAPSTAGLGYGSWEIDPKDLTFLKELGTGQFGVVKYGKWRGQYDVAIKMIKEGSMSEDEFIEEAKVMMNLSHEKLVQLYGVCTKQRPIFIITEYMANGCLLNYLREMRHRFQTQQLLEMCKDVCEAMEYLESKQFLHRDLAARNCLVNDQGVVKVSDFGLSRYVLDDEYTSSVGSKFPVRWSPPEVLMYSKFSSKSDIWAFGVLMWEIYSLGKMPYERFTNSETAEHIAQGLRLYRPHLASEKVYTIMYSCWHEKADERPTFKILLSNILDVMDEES
c-SRC, sequence (P12931 whole entry, looked up): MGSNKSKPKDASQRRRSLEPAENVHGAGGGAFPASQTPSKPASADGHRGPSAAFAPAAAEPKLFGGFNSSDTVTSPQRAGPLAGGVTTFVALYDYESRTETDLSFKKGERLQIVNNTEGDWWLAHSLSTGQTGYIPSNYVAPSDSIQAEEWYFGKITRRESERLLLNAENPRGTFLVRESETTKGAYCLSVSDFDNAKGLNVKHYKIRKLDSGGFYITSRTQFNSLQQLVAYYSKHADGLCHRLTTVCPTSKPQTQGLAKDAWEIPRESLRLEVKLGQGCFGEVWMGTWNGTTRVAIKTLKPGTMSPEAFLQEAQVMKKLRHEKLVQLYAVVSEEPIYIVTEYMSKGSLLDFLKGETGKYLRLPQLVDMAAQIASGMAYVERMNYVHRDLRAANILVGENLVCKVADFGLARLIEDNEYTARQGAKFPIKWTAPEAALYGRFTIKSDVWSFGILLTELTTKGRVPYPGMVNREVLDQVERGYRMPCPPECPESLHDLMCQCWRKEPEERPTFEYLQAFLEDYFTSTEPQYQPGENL

Row | SMILES | IC50 ([1]; 72 hours) [nM] | IC50 ([2]; 72 hours) [nM] | IC50 ([3]; 72 hours) [nM] | IC50 [4] [nM] | IC50 (EGFR wild type) [µM] | IC50 (EGFR L858R mutant type) [µM] | IC50 [5] [µM] | The kinase activity inhibitory rate (%) by the tested compounds at 10 μM MET (MET) [%] | The kinase activity inhibitory rate (%) by the tested compounds at 10 μM c-SRC (c-SRC) [%] | The kinase activity inhibitory rate (%) by the tested compounds at 10 μM PDGFRα (PDGFRα) [%] | IC50 (VEGFR2; ATP 90 μM (Km)) [nM] | The kinase activity inhibitory rate (%) by the tested compounds at 10 μM BTK (BTK) [%] | The kinase activity inhibitory rate (%) by the tested compounds at 10 μM ALK (ALK) [%] | The kinase activity inhibitory rate (%) by the tested compounds at 10 μM FLT3 (FLT3) [%] | The kinase activity inhibitory rate (%) by the tested compounds at 10 μM c-KIT (c-KIT) [%] | further results
1 | CC(C)n1c(Nc2ccccc2)nc2cnc(Nc3ccc(C(=O)NN4CCN(C)CC4)cc3)nc21 [Compound 8-1] | 2 | 7600 | 1390 | 105 | 0.003 | 0.008 | 0.09 | 83 | 11 | 43 | > 1000 | 46 | 23 | 85 | 26 | 
2 | CC(C)n1c(Nc2ccc(F)c(Cl)c2)nc2cnc(Nc3ccc(C(=O)NN4CCN(C)CC4)cc3)nc21 [Compound 8-2] | 1.3 | > 10000 | 883 | 558 | 0.002 | 0.001 | < 0.001 | 100 | 99 | 84 | > 1000 | 98 | 63 | 78 | 90 | 
3 | COc1cc(C(=O)NN2CCN(C)CC2)ccc1Nc1ncc2nc(Nc3ccccc3)n(C(C)C)c2n1 [Compound 8-7, 3-methoxy-4-(9-isopropyl-8-phenylamino-9H-purin-2-ylamino)-N-(4-methylpiperazin-1-yl)benzamide] |  |  |  |  |  |  |  |  |  |  |  |  |  |  |  | IC50 ([1]; Homo sapiens, HCC827, 72 hours): 7.5 nM; IC50 ([2]; Homo sapiens, NCI-H1975, 72 hours): > 10000 nM; IC50 ([3]; Homo sapiens, NCI-H292, 72 hours): 138 nM; IC50 ([4]; Homo sapiens): 12.1 nM; inhibition at 10 µM (MET; read-out: The kinase activity inhibitory rate (%) by the tested compounds at 10 μM MET): 0%; inhibition at 10 µM (c-SRC; read-out: The kinase activity inhibitory rate (%) by the tested compounds at 10 μM c-SRC): 28%; inhibition at 10 µM (PDGFRα; read-out: The kinase activity inhibitory rate (%) by the tested compounds at 10 μM PDGFRα): 9%; IC50 (VEGFR2): > 1000 nM; inhibition at 10 µM (BTK; read-out: The kinase activity inhibitory rate (%) by the tested compounds at 10 μM BTK): 12%; inhibition at 10 µM (ALK; read-out: The kinase activity inhibitory rate (%) by the tested compounds at 10 μM ALK): 61%; inhibition at 10 µM (FLT3; read-out: The kinase activity inhibitory rate (%) by the tested compounds at 10 μM FLT3): 0%; inhibition at 10 µM (c-KIT; read-out: The kinase activity inhibitory rate (%) by the tested compounds at 10 μM c-KIT): 8%
4 | CC(C)n1c(Nc2ccccc2)nc2cnc(Nc3ccc(C(=O)NC4CCN(C)CC4)cc3)nc21 [Compounds 8-9] | 4.2 | > 10000 | 160 | 72.3 | < 0.001 | 0.0004 | 0.006 | 67 | 98 | 88 | > 1000 | 88 | 36 | 76 | 96 | 
5 | CC(C)n1c(Nc2ccccc2)nc2cnc(Nc3ccc(N4CCN(C)CC4)cc3)nc21 [Compounds 8-10] | 0.1 | 2000 | 10.5 | 0.9 | 0.005 | 0.005 | 0.046 | 64 | 23 | 87 | > 1000 | 32 | 45 | 87 | 3 | 
6 | CC(C)n1c(Nc2cccc(Br)c2)nc2cnc(Nc3ccc(N4CCN(C)CC4)cc3)nc21 [Compounds 8-11] | 0.2 | 1730 | 8.8 | 0.2 | 0.007 | 0.004 | 0.005 | 93 | 98 | 58 | 140 | 77 | 33 | 67 | 67 | 
7 | C#Cc1cccc(Nc2nc3cnc(Nc4ccc(N5CCN(C)CC5)cc4)nc3n2C(C)C)c1 [Compounds 8-12] | 0.2 | 1930 | 10.7 | 0.2 | 0.004 | 0.003 | 0.003 | 93 | 98 | 55 | 50 | 78 | 80 | 56 | 82 | 
8 | CC(C)n1c(Nc2ccc(F)c(Cl)c2)nc2cnc(Nc3ccc(N4CCN(C)CC4)cc3)nc21 [Compounds 8-13] | 0.2 | 2000 | 6.1 | 0.3 | 0.004 | 0.003 | 0.009 | 100 | 31 | 90 | > 1000 | 45 | 78 | 89 | 87 | 
9 | CC(C)n1c(Nc2ccc(Br)cc2)nc2cnc(Nc3ccc(N4CCN(C)CC4)cc3)nc21 [Compounds 8-15] | 0.2 | > 10000 | 220 | 6.4 | 0.003 | 0.001 | 0.015 | 45 | 97 | 94 | 4 | 95 | 40 | 90 | 94 | 
